{
  "source": "paper PMC8264259",
  "about": "“A Novel Ruthenium(II) Complex With Lapachol Induces G2/M Phase Arrest Through Aurora-B Kinase Down-Regulation and ROS-Mediated Apoptosis in Human Prostate Adenocarcinoma Cells” (Frontiers in Oncology, 2021)",
  "key": {"calf thymus DNA (ct-DNA)": {"system": "calf thymus DNA (ct-DNA)", "experiment": "DNA minor groove interaction assay with Hoechst 33258", "format": "binding", "details": "Hoechst 2.7 µM, ct-DNA 125 µM, complex 0-125 µM, 37°C", "method": "DNA minor groove interaction was assessed by examining the ability of the complexes to displace Hoechst 33258 (Thermo Fischer Scientific) from calf thymus DNA (ct-DNA) (Sigma-Aldrich). The ct-DNA solution was prepared by dilution of 2 mg of the ct-DNA in 1 ml of Tris-HCl buffer (4.5 mM Tris-HCl, 0.5 mM Tris-base, 50 mM NaCl, pH 7.4), and the concentration was determined by absorption spectrophotometric using the molar absorption coefficient 6600 mol^−1 dm^3 cm^−1 at 260 nm ([38]). Thus, the ct-DNA (125 µM) was incubated with Hoechst (2.7 µM), and the extinction of the fluorescence intensity was monitored by the addition of different concentrations (0–125 µM) of both complexes in Tris-HCl containing 10% of DMSO. Fluorescence emission spectra were recorded from […] to 500 nm after excitation wavelength of 343 nm, using an opaque 96-well plate, in a Synergy H1 Fluorescence Spectrophotometer (BioTek®), at 37°C."}, "DU-145 cells": {"system": "DU-145 cells", "experiment": "Cellular ROS/Superoxide detection", "format": "cell-based, human", "method": "Total intracellular ROS generation was measured using 2′,7′-dichlorodihydrofluorescein diacetate (H2DCFDA, Sigma-Aldrich), as reported by ([36]). Briefly, DU-145 cells were seeded (1.5 × 10^4 cells/well) into black 96-well plates and maintained to attach at 37°C in 5% CO2. […] After that, cells were labeled with H2DCFDA solution at 5 μM in N,N-dimethylformamide (Sigma-Aldrich). After that, fluorescence intensity was measured in a Synergy H1 Fluorescence Spectrophotometer (BioTek®), at the excitation and emission wavelengths of 495 and 527 nm, respectively. Thereafter, ROS/Superoxide levels were measured using Cellular ROS/Superoxide Detection Assay Kit (Abcam®). Cells were seeded (1.5 × 10^4 cells/well) into black 96-well plates and maintained to attach at 37°C in 5% CO2. After 24 h, cells were treated with complex (2) (0.25, 0.50, 1.0, and 1.5 μM) for 24 h. […] Fluorescence was measured in quadruplicates using a fluorescent microplate reader Synergy H1 (BioTek®) with standard fluorescein (Ex = 488 nm, Em = 520 nm) and rhodamine (Ex = 550 nm, Em = 610 nm) filter sets for ROS and superoxide determination, respectively. […] Cells were labeled as described above, and the ROS levels were measured. […] After 24 h of treatment, the cell viability was determined by Alamar blue® assay as described above."}, "[1]": {"system": "cleaved caspase-3, -9, and PARP", "experiment": "Western blot, apoptotic proteins", "format": "cell-based, human", "details": "DU-145, 24 h", "method": "Briefly, DU-145 cells were seeded (1.0 × 10^6 cells/well) into six-well plates and maintained to attach at 37°C in 5% CO2. After 24 h, cells were treated with 0.25, 0.50, 1.0, and 1.5 μM of complex (2). DMSO (0.1% v/v) was used as the vehicle control. After 24 h of incubation, cells were collected and suspended in Western blotting lysis buffer (20 mM Tris-HCl pH 7.4, 150 mM NaCl, 1 mM EDTA, and phosphatase and protease inhibitors). Cell lysates were centrifuged at 11,000g for 15 min at 4 °C, and supernatant was collected. Protein concentrations were quantified using the BCA Protein Assay Kit® (Thermo Fischer Scientific), according to the manufacturer’s instructions. For immunoblotting, equal amounts (30 μg) of total protein were electrophoresed in a NuPAGE® 4-12% Bis-Tris gel and transferred to an Invitrolon™ polyvinylidene difluoride (PVDF) membrane (Novex®, Thermo Fischer Scientific) at 100 V for 1 h. PVDF-membrane was washed two times (5 min each) with Tris-buffered saline plus Tween 20 (TBST, Sigma-Aldrich) and blocked in 5% non-fat milk in phosphate buffered saline with Tween®20 (PBST, Sigma-Aldrich) for 1 h at room temperature. […]"}},
  "data": [
    {"smiles": "CC(C)=CCC1=C([O-])C(=O)c2ccccc2C1=O.F[P-](F)(F)(F)(F)F.[Ru+2].c1ccc(P(CP(c2ccccc2)c2ccccc2)c2ccccc2)cc1.c1cnc2c(c1)ccc1cccnc12", "note": "[complex (2), [Ru(Lap)(dppm)(phen)]PF6]", "values": [
      {"measurement": "displacement of Hoechst 33258 from ct-DNA (fluorescence)", "setting": "calf thymus DNA (ct-DNA)", "value": "decrease the fluorescence of the Hoechst-DNA system"},
      {"measurement": "total ROS levels", "setting": "DU-145 cells; DU-145, 24 h exposure", "value": "significantly higher"},
      {"measurement": "intracellular ROS with ROS scavenger NAC", "setting": "DU-145 cells; DU-145, cotreatment with 5 mM NAC, 24 h", "value": "inhibited the formation of intracellular ROS"},
      {"measurement": "activation of downstream apoptotic proteins", "setting": "[1]", "value": "increase in the activation of cleaved caspase-3, -9, and PARP"}
    ]}
  ]
}
